Data as given in patent US20050065208A1, “Benzofuranes and their use in the treatment of atrial fibrillation” (priority 2001, published 2005).
Where two headings read alike, the source gives them in different places.

How the values were obtained:
[1] = biological target: T1, IKs, slow component of the delayed rectifier K-current (Homo sapiens, UniProt P51787); parameters: key: Yes: The compound has been demonstrated to inhibit the particular current (reference within parenthesis).; No: The compound has been demonstrated to not inhibit the particular current (reference within parenthesis).; U: No data regarding interaction of the compound with the particular current has been found in the literature; settings: Table 2, literature; cited from earlier work
[2] = biological target: T2, INa, depolarizing Na-current (Homo sapiens, UniProt Q14524); parameters: key: Yes: The compound has been demonstrated to inhibit the particular current (reference within parenthesis).; No: The compound has been demonstrated to not inhibit the particular current (reference within parenthesis).; U: No data regarding interaction of the compound with the particular current has been found in the literature; settings: Table 2, literature; cited from earlier work
T2 sequence (Q14524 whole entry): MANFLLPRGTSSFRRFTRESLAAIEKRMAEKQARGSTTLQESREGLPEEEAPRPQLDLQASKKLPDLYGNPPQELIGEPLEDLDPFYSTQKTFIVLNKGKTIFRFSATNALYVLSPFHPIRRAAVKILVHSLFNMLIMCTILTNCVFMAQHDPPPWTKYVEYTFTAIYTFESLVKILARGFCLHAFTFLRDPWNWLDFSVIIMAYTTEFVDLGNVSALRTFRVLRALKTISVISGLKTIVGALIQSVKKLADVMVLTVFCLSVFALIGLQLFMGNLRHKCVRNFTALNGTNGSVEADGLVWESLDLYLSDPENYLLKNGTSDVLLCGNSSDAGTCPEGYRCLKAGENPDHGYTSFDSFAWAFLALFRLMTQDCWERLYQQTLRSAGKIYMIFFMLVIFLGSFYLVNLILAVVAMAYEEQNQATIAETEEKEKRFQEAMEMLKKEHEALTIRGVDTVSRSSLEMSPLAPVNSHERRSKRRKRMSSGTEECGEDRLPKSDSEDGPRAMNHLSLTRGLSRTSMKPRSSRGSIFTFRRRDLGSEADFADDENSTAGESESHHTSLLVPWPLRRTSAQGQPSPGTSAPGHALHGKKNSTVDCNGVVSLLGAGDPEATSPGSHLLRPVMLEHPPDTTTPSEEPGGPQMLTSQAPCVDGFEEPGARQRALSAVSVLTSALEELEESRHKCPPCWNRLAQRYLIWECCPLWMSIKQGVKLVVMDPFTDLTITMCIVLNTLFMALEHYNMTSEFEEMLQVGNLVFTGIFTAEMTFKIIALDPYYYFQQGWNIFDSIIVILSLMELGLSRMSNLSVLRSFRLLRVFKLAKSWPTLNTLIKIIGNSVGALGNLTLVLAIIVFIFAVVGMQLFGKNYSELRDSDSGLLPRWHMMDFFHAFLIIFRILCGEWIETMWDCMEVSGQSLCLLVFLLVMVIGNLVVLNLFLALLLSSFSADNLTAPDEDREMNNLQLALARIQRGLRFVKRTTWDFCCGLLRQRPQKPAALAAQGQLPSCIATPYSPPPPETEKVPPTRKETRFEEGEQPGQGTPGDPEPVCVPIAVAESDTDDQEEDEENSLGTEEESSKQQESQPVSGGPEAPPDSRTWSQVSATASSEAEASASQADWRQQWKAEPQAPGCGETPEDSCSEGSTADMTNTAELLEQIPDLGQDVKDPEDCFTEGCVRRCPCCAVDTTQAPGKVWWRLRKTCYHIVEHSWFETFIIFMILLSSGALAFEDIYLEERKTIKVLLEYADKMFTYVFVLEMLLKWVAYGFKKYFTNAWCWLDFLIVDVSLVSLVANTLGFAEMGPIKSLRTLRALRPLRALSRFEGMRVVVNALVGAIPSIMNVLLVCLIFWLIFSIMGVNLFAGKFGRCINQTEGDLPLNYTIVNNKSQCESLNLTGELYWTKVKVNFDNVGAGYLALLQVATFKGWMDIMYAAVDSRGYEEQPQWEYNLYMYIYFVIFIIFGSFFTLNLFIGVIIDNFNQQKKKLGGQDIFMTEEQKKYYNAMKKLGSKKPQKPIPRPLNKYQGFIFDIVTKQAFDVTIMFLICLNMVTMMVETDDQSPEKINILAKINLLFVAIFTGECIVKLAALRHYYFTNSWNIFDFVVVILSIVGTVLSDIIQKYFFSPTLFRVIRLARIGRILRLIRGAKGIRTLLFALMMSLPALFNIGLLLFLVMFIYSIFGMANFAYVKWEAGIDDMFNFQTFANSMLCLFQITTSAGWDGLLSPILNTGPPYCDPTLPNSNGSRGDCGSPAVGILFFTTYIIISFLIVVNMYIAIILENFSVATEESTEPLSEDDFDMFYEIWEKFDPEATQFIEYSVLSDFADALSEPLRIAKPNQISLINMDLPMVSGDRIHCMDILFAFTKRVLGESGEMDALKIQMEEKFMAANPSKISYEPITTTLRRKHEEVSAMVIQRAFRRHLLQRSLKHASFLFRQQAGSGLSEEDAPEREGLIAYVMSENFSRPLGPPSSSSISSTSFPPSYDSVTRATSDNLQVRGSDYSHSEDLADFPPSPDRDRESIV

[3] = biological target: T3, IK(ATP), ATP-sensitive K-current (Homo sapiens, UniProt Q14654); parameters: key: Yes: The compound has been demonstrated to inhibit the particular current (reference within parenthesis).; No: The compound has been demonstrated to not inhibit the particular current (reference within parenthesis).; U: No data regarding interaction of the compound with the particular current has been found in the literature; settings: Table 2, literature; cited from earlier work
T3 construct: electrophysiology technique applied to cardiomyocyte cultures; endogenous in cells; current induced with dinitrophenole
T3 sequence (Q14654 whole entry): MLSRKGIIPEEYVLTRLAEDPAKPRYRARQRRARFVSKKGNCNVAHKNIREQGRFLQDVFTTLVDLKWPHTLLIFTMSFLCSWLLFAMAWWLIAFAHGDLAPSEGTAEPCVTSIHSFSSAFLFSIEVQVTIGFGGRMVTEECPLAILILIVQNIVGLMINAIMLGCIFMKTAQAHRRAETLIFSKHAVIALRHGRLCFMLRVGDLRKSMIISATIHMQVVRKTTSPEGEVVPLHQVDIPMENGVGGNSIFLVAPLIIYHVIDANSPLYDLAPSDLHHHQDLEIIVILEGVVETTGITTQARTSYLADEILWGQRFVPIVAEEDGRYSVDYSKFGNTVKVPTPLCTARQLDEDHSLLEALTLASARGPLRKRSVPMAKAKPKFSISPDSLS
T3 sequence (O60706 whole entry partner): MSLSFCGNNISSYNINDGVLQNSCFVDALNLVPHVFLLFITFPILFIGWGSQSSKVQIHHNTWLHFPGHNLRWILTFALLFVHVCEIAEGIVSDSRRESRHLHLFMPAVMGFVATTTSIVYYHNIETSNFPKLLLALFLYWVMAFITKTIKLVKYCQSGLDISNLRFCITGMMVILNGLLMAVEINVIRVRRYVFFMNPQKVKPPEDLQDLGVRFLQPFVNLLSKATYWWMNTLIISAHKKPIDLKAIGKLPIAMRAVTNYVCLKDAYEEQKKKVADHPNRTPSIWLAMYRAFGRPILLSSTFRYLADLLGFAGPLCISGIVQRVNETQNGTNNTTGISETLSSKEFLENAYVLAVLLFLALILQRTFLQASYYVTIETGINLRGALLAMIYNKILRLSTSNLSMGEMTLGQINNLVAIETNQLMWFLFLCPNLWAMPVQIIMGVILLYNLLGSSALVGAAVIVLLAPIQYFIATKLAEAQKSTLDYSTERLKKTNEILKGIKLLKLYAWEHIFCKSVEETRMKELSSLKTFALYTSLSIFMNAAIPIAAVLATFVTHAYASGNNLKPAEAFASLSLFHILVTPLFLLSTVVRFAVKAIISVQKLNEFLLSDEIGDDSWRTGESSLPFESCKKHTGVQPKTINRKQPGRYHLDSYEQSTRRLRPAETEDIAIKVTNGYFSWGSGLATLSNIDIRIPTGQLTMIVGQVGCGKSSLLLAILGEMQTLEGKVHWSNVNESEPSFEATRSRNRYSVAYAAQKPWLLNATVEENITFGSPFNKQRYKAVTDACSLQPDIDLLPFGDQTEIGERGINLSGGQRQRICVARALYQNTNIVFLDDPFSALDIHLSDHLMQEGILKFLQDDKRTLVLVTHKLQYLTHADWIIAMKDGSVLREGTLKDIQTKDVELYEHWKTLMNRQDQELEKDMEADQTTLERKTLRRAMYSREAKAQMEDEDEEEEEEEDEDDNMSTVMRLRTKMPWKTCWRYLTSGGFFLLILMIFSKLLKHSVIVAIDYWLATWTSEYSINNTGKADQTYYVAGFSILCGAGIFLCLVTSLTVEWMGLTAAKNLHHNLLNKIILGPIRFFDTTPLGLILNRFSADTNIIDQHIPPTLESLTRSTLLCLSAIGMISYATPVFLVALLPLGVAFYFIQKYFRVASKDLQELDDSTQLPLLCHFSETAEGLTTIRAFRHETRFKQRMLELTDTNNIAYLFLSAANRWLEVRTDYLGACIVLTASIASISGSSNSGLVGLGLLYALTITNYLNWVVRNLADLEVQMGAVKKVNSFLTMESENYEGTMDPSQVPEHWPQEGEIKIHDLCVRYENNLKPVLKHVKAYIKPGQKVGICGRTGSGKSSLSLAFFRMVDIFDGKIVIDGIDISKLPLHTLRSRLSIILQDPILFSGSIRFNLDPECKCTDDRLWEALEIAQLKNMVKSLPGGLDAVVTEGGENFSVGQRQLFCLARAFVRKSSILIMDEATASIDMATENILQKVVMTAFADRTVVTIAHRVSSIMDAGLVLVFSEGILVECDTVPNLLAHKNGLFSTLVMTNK

[4] = test system: triiodthyronine (T3)-signalling; test: Antagonism of T3-signalling action in cells; assay type: cell-based; settings: manuscript in preparation
[5] = biological target: T4, IK(ACh), AcetylCholine activated K-current (Homo sapiens, UniProt P48544+P48549); parameters: key to Blocking activity on IK(ACh): Yes: The compound has been demonstrated to inhibit the particular current (reference within parenthesis).; No: The compound has been demonstrated to not inhibit the particular current (reference within parenthesis).; U: No data regarding interaction of the compound with the particular current has been found in the literature; settings: cited from earlier work
T4 construct: electrophysiology technique applied to cardiomyocyte cultures; endogenous in cells
T4 sequence (P48549 1-501): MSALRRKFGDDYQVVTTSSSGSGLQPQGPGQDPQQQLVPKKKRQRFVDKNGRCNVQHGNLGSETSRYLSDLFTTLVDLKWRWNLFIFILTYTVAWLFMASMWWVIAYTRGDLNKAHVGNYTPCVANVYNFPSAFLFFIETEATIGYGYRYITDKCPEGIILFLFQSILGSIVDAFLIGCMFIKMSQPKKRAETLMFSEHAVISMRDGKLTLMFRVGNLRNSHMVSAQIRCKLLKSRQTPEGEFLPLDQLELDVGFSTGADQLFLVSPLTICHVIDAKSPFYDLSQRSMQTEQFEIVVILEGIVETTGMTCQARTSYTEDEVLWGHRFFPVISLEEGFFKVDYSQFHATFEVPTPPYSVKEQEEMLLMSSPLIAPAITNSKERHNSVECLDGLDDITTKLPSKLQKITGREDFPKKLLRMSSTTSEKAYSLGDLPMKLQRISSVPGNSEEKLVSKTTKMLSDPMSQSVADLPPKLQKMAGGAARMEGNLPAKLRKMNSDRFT
T4 sequence (P48544 1-419): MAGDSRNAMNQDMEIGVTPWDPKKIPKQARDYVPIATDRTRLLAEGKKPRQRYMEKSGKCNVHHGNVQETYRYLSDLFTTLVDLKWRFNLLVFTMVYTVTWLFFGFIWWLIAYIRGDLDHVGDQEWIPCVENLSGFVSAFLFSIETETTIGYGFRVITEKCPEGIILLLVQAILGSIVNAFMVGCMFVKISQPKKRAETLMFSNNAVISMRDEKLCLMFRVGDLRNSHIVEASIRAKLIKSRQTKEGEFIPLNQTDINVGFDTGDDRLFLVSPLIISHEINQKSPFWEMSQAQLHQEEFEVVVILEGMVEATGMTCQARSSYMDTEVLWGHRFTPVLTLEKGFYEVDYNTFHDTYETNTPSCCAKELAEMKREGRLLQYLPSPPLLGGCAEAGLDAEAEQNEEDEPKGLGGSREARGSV

[6] = test system: IK1, inward rectifier K-current; parameters: key: Yes: The compound has been demonstrated to inhibit the particular current (reference within parenthesis).; No: The compound has been demonstrated to not inhibit the particular current (reference within parenthesis).; U: No data regarding interaction of the compound with the particular current has been found in the literature; settings: Table 2, literature; cited from earlier work
[7] = biological target: T5, IK(Ado), adenosine activated K-current (Homo sapiens, UniProt P48544+P48549); parameters: key to Blocking activity on IK(Ado): Yes: The compound has been demonstrated to inhibit the particular current (reference within parenthesis).; No: The compound has been demonstrated to not inhibit the particular current (reference within parenthesis).; U: No data regarding interaction of the compound with the particular current has been found in the literature; settings: cited from earlier work
T5 construct: electrophysiology technique applied to cardiomyocyte cultures; endogenous in cells
T5 sequence (P48549 1-501): T4 sequence (P48549 1-501)
T5 sequence (P48544 1-419): T4 sequence (P48544 1-419)

[8] = test system: Ito, transient outward K-current; test: Voltage clamp: transient outward K-current; assay type: cell-based; parameters: key: Yes: The compound has been demonstrated to inhibit the particular current (reference within parenthesis).; No: The compound has been demonstrated to not inhibit the particular current (reference within parenthesis).; U: No data regarding interaction of the compound with the particular current has been found in the literature; settings: Table 2, own voltage clamp data
Excerpt: (§1) Results from voltage clamp experiments with compounds of the invention on other ion-currents than IK(Ado), IK(ACh) and IK(ATP) are included in Table 2.

[9] = biological target: T3, IK(ATP), ATP-sensitive K-current; test: Voltage clamp on cardiomyocyte cultures: inhibition of ATP-sensitive K-current (induced with DNP); assay type: cell-based; parameters: key: Yes: The compound has been demonstrated to inhibit the particular current (reference within parenthesis).; No: The compound has been demonstrated to not inhibit the particular current (reference within parenthesis).; U: No data regarding interaction of the compound with the particular current has been found in the literature; settings: Table 2, own voltage clamp data
Excerpt: (§2) In the present invention acute and chronic effects of various compounds have been investigated by using electrophysiology technique applied to cardiomyocyte cultures.
(§3) The inhibitory effects occur within seconds after induction of the current with ACh, Ado or dinitrophenole (DNP reduces intracellular ATP). The acute inhibitory effects caused by the compounds of the present invention on these K-currents in cardiac muscle tissue had not previously been discovered. The reasons for this include the fact that these ligand activated K-currents (IK(Ado), IK(ACh) and IK(ATP)) are preferentially active in the atrial cardiomyocytes (Workman A J et al. Cardiovasc Res 1999 September;43(4):974-84; Koumi S-I, and Wasserstorm A. American Journal of Physiology 266[35], H1812-H1821. 1994), while previous studies have been carried out with tissue from cardiac ventricles. Furthermore, IK(Ado) and IK(ACh) must first be induced via the M2 or A1 receptor (with ACh and Ado respectively) before any inhibition can be observed. Without any agonist at the extracellular site of the membrane these ligand-gated channels probably have only minor roles in shaping repolarization but, when activated by extracellular acetylcholine or adenosine, they can substantially shorten action potential duration in the atrium (Tristani-Firouzi M et al. Am J Med 2001 January; 110(1):50-9).

[10] = biological target: T4, IK(ACh), AcetylCholine activated K-current; test: Voltage clamp on cardiomyocyte cultures: inhibition of K-current induced by ACh or carbachol; assay type: cell-based; parameters: key to Blocking activity on IK(ACh): Yes: The compound has been demonstrated to inhibit the particular current (reference within parenthesis).; No: The compound has been demonstrated to not inhibit the particular current (reference within parenthesis).; U: No data regarding interaction of the compound with the particular current has been found in the literature; settings: for Blocking activity on IK(ACh): Table 2, own voltage clamp data; for inhibition at 50 µM: read-out: Inhibition of IK (ACh) (Induced by ACh or Carbachol), % Inh
Excerpt: as §2, §3
(§4) The following Table 1 illustrates the potency (IC50-values) of compounds of formulae I and II compared with other anti-arrhythmic drugs to inhibit the transmembrane currents IK(Ado) and IK(ACh) after stimulation of the currents with Adenosine or Acetylcholine (or Carbachol).

[11] = test system: IK1, inward rectifier K-current; test: Voltage clamp: inward rectifier K-current; assay type: cell-based; parameters: key: Yes: The compound has been demonstrated to inhibit the particular current (reference within parenthesis).; No: The compound has been demonstrated to not inhibit the particular current (reference within parenthesis).; U: No data regarding interaction of the compound with the particular current has been found in the literature; settings: Table 2, own voltage clamp data
Excerpt: as §1

[12] = biological target: T2, INa, depolarizing Na-current; test: Voltage clamp: depolarizing Na-current; assay type: cell-based; parameters: key: Yes: The compound has been demonstrated to inhibit the particular current (reference within parenthesis).; No: The compound has been demonstrated to not inhibit the particular current (reference within parenthesis).; U: No data regarding interaction of the compound with the particular current has been found in the literature; settings: Table 2, own voltage clamp data
Excerpt: as §1

[13] = biological target: T5, IK(Ado), adenosine activated K-current; test: Voltage clamp on cardiomyocyte cultures: inhibition of adenosine-induced K-current; assay type: cell-based; parameters: key to Blocking activity on IK(Ado): Yes: The compound has been demonstrated to inhibit the particular current (reference within parenthesis).; No: The compound has been demonstrated to not inhibit the particular current (reference within parenthesis).; U: No data regarding interaction of the compound with the particular current has been found in the literature; settings: for Blocking activity on IK(Ado): Table 2, own voltage clamp data; for inhibition at 50 µM: read-out: Inhibition of IK (Ado) Induced by Adenosine, % Inh
Excerpt: as §2, §3, §4

[14] = biological target: T1, IKs, slow component of the delayed rectifier K-current; test: Voltage clamp: slow component of the delayed rectifier K-current; assay type: cell-based; parameters: key: Yes: The compound has been demonstrated to inhibit the particular current (reference within parenthesis).; No: The compound has been demonstrated to not inhibit the particular current (reference within parenthesis).; U: No data regarding interaction of the compound with the particular current has been found in the literature; settings: Table 2, own voltage clamp data
Excerpt: as §1

Blocking activity on IK(ATP) [9] | Blocking activity on IK(ACh) [10] | inhibition at 50 µM [10] | Blocking activity on INa [12] | Blocking activity on IK(Ado) [13] | inhibition at 50 µM [13] | Blocking activity on IKs [14] | SMILES | Blocking activity on IKs [1] | Blocking activity on INa [2] | Blocking activity on IK(ATP) [3] | Antagonism of triiodthyronine (T3)-signalling action in cells [4] | Blocking activity on IK(ACh) ([5]; Table 2, literature) | Block of ligand-gated current IK(ACh), in words ([5]; Watanabe et al.) | IC50 ([5]; current induced by ACh or carbachol, literature value, read-out: Inhibition of IK (ACh) (Induced by ACh or Carbachol) (IC50)) | Blocking activity on IK1 [6] | Blocking activity on IK(Ado) ([7]; Table 2, literature) | Block of ligand-gated current IK(Ado), in words ([7]; Watanabe et al.) | IC50 ([7]; current induced by adenosine, literature value, read-out: Inhibition of IK (Ado) Induced by Adenosine (IC50)) | Blocking activity on Ito [8] | Blocking activity on IK1 [11]
 |  |  |  |  |  |  | CCCCc1oc2ccccc2c1C(=O)c1cc(I)c(OCCN(CC)CC)c(I)c1 [Amiodarone] | Yes | Yes | Yes | antagonize | Yes | does block | 2000 nM | Yes | Yes | does block | 2000 nM |  | 
Yes | Yes | 100% | No | Yes | 100% | No | Cc1oc2ccccc2c1Cc1cc(C(C)C)c(OCC(=O)O)c(C(C)C)c1 [Example E4, 2-methyl-3-(3,5-diisopropyl-4-carboxymethoxybenzyl)benzofuran] |  |  |  |  |  |  |  |  |  |  |  | No | No
Yes | Yes | 100% | No | Yes | 100% | No | Cc1oc2ccccc2c1Cc1cc(I)c(OCC(=O)O)c(I)c1 [Example E6, 2-methyl-3-(3,5-diiodo-4-carboxymethoxy-benzyl)benzofuran] |  |  |  |  |  |  |  |  |  |  |  | No | No
